Targets include Carbonic anhydrase 6 (Homo sapiens, UniProt P23280); Carbonic anhydrase 14 (Homo sapiens, UniProt Q9ULX7); Carbonic anhydrase 13 (Mus musculus, UniProt Q9D6N1); Carbonic anhydrase 1 (Homo sapiens, UniProt P00915); Carbonic anhydrase 4 (Homo sapiens, UniProt P22748); Carbonic anhydrase 9 (Homo sapiens, UniProt Q16790); Carbonic anhydrase 12 (Homo sapiens, UniProt O43570); Carbonic anhydrase 3 (Homo sapiens, UniProt P07451).

Test [1] deals with Carbonic anhydrase 5B, mitochondrial (Homo sapiens, UniProt Q9Y2D0).
Chain of Carbonic anhydrase 5B, mitochondrial (Q9Y2D0 whole entry): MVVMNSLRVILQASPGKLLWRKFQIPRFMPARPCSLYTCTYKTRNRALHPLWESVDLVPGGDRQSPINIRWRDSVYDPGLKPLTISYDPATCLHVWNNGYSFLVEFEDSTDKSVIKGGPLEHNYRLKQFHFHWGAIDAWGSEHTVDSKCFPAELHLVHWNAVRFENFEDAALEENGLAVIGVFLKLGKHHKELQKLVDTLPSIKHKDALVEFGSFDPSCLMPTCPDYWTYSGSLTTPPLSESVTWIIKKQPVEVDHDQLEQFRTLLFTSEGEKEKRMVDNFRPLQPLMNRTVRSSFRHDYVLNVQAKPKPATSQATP

Chain of Carbonic anhydrase 1 (P00915 whole entry): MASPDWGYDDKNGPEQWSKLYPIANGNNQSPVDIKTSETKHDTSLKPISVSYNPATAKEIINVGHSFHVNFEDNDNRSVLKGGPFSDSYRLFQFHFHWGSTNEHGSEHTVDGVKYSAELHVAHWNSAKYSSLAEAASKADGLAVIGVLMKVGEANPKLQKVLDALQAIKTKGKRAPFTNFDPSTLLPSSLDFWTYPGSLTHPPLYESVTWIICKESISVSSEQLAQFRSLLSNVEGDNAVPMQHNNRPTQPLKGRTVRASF
Chain of Carbonic anhydrase 14 (Q9ULX7 whole entry): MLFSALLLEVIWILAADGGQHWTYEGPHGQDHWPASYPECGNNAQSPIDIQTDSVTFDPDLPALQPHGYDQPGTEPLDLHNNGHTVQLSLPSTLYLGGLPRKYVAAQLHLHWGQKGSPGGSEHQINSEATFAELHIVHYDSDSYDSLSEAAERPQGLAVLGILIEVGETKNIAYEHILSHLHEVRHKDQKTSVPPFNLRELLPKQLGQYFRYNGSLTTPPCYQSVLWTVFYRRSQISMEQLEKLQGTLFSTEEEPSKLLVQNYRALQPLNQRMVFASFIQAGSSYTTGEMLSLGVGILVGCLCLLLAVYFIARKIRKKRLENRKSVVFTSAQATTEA
Chain of Carbonic anhydrase 6 (P23280 whole entry): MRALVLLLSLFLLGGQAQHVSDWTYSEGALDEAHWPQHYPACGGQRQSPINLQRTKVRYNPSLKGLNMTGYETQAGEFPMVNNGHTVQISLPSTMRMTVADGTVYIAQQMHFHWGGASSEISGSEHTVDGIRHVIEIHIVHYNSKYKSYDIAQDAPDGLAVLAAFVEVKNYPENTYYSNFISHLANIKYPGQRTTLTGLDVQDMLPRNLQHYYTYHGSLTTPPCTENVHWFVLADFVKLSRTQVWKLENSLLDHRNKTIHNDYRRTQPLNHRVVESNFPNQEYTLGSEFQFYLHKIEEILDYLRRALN
Chain of Carbonic anhydrase 12 (O43570 whole entry): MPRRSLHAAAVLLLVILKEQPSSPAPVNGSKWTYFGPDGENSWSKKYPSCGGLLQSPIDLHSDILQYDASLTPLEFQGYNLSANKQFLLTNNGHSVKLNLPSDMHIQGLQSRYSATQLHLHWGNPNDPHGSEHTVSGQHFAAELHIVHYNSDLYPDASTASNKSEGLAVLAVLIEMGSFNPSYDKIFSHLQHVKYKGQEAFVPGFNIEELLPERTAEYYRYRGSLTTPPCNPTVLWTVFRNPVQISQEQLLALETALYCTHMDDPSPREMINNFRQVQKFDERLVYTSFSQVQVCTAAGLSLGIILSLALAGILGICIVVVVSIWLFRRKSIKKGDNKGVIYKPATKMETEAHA
Chain of Carbonic anhydrase 13 (Q9D6N1 whole entry): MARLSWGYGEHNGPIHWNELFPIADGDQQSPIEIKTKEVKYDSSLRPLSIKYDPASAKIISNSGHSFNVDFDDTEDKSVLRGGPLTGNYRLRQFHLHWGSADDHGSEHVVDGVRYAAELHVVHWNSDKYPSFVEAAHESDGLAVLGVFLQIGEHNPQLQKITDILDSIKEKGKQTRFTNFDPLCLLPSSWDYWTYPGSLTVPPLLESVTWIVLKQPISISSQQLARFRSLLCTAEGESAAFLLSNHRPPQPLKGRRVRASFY
Chain of Carbonic anhydrase 4 (P22748 whole entry): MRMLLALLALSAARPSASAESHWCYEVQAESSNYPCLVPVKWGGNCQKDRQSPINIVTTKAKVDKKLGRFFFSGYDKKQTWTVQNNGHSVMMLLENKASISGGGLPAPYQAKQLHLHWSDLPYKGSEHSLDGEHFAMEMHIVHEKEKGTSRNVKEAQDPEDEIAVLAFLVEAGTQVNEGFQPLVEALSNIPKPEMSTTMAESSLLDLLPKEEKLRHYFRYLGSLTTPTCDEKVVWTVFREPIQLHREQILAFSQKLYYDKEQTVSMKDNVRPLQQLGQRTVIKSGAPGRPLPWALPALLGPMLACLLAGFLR
Chain of Carbonic anhydrase 3 (P07451 whole entry): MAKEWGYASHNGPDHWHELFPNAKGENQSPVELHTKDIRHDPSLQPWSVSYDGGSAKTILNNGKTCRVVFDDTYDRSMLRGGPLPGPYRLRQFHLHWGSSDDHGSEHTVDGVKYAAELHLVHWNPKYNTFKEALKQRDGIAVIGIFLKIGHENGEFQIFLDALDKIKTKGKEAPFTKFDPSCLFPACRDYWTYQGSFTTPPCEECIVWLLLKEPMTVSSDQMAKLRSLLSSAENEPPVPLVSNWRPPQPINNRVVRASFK

A word on the Ki: it is a dissociation constant, usually derived from enzyme kinetics or from competition with a known ligand. Low readings indicate tighter binding, high ones weaker binding. As for `NS(=O)(=O)c1ccc2[nH]c(-c3cscn3)nc2c1`, the inhibitory constant (Ki) came to 25 nM on Carbonic anhydrase 6; 424 nM at Carbonic anhydrase 14; 4850 nM on Carbonic anhydrase 13; 50.9 nM on Carbonic anhydrase 1; 48.9 nM on Carbonic anhydrase 4; 6.4 nM at Carbonic anhydrase 9. For the same molecule, the Ki came out at 40.9 nM in test [1], 17.8 nM at Carbonic anhydrase 12 and 34500 nM at Carbonic anhydrase 3.

For the origin of these results see ChEMBL document CHEMBL1152885 (Bioorg Med Chem Lett, 2009).
